From the supplement of paper PMC10307832

Legend:
Assay in all cases: relative viability (nuclei count vs DMSO), 5 days (fraction); higher = more cells survive
[1] = compound: CN[C@@H]1C[C@H]2O[C@@](C)([C@@H]1OC)n1c3ccccc3c3c4c(c5c6ccccc6n2c5c31)C(=O)NC4 [Staurosporine] + CC(=O)c1c(C)c2cnc(Nc3ccc(N4CCNCC4)cn3)nc2n(C2CCCC2)c1=O [Palbociclib] (partner 0.5 µM)
Summary of the method: (§1)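 Relative viability equals treated-well nuclei counts divided by vehicle-well nuclei counts. Counts came from 4× images of lung cancer cell lines grown in 1536-well plates for 5 days after pin-tool dosing on the day after seeding. Dosing used one drug alone or a fixed anchor-drug dose plus five library-drug doses (not always all listed) in √10 steps, and values are medians of duplicate plates.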

[2] = compound: CN[C@@H]1C[C@H]2O[C@@](C)([C@@H]1OC)n1c3ccccc3c3c4c(c5c6ccccc6n2c5c31)C(=O)NC4 [Staurosporine] + O=C(CCCCCCC(=O)Nc1ccccc1)NO [Vorinostat] (partner 1 µM)
Summary of the method: as §1

[3] = compound: O=c1[nH]cc(F)c(=O)[nH]1 [5-Fluorouracil] + C[C@]1(O)C[C@@H](c2nc(-c3ccc4ccc(-c5ccccc5)nc4c3)c3c(N)nccn32)C1 [Linsitinib] (partner 1 µM)
Summary of the method: as §1

[4] = compound: CN[C@@H]1C[C@H]2O[C@@](C)([C@@H]1OC)n1c3ccccc3c3c4c(c5c6ccccc6n2c5c31)C(=O)NC4 [Staurosporine] + C[C@]1(O)C[C@@H](c2nc(-c3ccc4ccc(-c5ccccc5)nc4c3)c3c(N)nccn32)C1 [Linsitinib] (partner 1 µM)
Summary of the method: as §1

Cell Line	relative viability ([1]; first compound 0.005 µM)	relative viability ([1]; first compound 0.01581 µM)	relative viability ([1]; first compound 0.1581 µM)	relative viability ([1]; first compound 0.5 µM)	relative viability ([2]; first compound 0.005 µM)	relative viability ([2]; first compound 0.01581 µM)	relative viability ([2]; first compound 0.05 µM)	relative viability ([2]; first compound 0.1581 µM)	relative viability ([2]; first compound 0.5 µM)	relative viability ([1]; first compound 0.05 µM)	relative viability ([3]; first compound 0.2 µM)	relative viability ([3]; first compound 0.6325 µM)	relative viability ([3]; first compound 2 µM)	relative viability ([4]; first compound 0.01581 µM)	relative viability ([4]; first compound 0.05 µM)	relative viability ([4]; first compound 0.1581 µM)	relative viability ([4]; first compound 0.5 µM)	relative viability ([3]; first compound 0.02 µM)	relative viability ([4]; first compound 0.005 µM)
NCI-H522	1.19	0.877	0.638	0.502	0.856	0.452	0.75	0.397	0.484	–	–	–	–	–	–	–	–	–	–
NCI-H1437	0.27	0.182	0.116	–	0.577	0.469	0.302	0.235	0.169	0.168	0.26	0.169	0.119	0.43	0.255	0.128	0.0812	–	–
SK-MES-1	0.235	0.232	0.163	0.147	0.47	0.27	0.18	0.154	0.127	0.193	0.799	0.433	0.337	0.403	0.318	0.267	0.153	1.07	0.836
NCI-H1299	–	–	–	–	–	–	–	–	–	–	0.982	0.825	0.59	0.305	0.206	0.143	0.113	1.09	0.785
NCI-H1563	–	–	–	–	–	–	–	–	–	–	1.25	1.12	0.994	0.611	0.733	0.654	0.478	1.08	0.752
NCI-H1650	0.238	0.138	0.118	0.0769	0.379	0.414	0.242	0.195	0.0786	0.147	–	–	–	–	–	–	–	–	–
Calu-6	–	–	–	–	–	–	–	–	–	–	1.01	0.82	0.61	0.776	0.3	0.0858	0.0592	0.975	0.92
EBC-1	–	–	–	–	–	–	–	–	–	–	0.928	0.814	0.605	0.523	0.181	0.122	0.111	0.859	0.738
NCI-H596	–	–	–	–	0.59	0.424	0.258	0.192	0.126	–	0.834	0.689	0.567	0.854	0.854	0.385	0.148	1.02	1.34
NCI-H1648	0.23	0.227	0.279	0.258	0.517	0.167	0.269	0.246	0.271	0.249	–	–	–	–	–	–	–	–	–
NCI-H1703	–	–	–	–	–	–	–	–	–	–	1.16	0.856	0.484	0.291	0.17	0.146	0.083	0.665	0.561
ChaGo-K-1	0.886	–	0.696	0.701	0.791	–	0.359	0.147	0.144	0.811	–	–	–	–	–	–	–	–	–
SW 900	0.376	0.359	0.201	0.18	0.294	0.15	0.171	0.146	0.0929	0.278	–	–	–	–	–	–	–	–	–
NCI-H2342	0.507	0.51	0.433	0.344	0.987	0.74	0.444	0.34	0.3	0.488	–	–	–	–	–	–	–	–	–
A549	–	–	–	–	–	–	–	–	–	–	0.652	0.301	0.119	0.227	0.0839	0.0873	0.0598	0.633	0.366
